Numbered stars: 1 amine (or outer) side, 2 acyl side, 3 side chain; on linkers, the order of the positions; unused ones are H or OH. Square brackets hold non-standard residues; d marks the D form. Side chains are listed from the residue outwards. Peptide text beside a SMILES is read from it. * marks the point of attachment. C20 diacid = O=C(O)CCCCCCCCCCCCCCCCCCC(=O)*; αMePhe(2-F) = C[C@](N)(Cc1ccccc1F)C(=O)O; γGlu = O=C(O)[C@H](CCC(=O)[*:2])N[*:1]; αMeF = C[C@](N)(Cc1ccccc1)C(=O)O; αMeL = CC(C)C[C@](C)(N)C(=O)O; AEEA = NCCOCCOCC(=O)O; Aib = CC(C)(N)C(=O)O
Legend:
[1] = target: T1, gastric inhibitory peptide receptor (GIPR) (Homo sapiens, UniProt P48546); test: cAMP pharmacological functional assay in presence of casein, hGIPR; type: cell-based; conditions: HEK293 cells expressing hGIPR, 0.1% Casein, geometric mean; read-out: hGIPR cAMP Rel EC50 nM (SEM, n)
T1 sequence (P48546 22-466): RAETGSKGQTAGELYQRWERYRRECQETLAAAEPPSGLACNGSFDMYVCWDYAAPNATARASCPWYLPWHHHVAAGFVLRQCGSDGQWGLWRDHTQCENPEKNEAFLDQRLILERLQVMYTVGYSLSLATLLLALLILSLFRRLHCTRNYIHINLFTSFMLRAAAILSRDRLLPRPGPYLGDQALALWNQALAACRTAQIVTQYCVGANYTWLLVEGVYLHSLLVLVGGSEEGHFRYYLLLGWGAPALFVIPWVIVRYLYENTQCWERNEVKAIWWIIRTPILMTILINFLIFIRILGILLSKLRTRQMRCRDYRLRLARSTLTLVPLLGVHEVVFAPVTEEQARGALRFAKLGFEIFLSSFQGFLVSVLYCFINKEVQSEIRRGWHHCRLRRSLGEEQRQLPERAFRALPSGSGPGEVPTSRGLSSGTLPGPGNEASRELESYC

[2] = target: T2, human GIP receptor (Homo sapiens, UniProt P48546); test: [125I]-GIP binding (SPA), human GIP receptor; conditions: read-out: hGIPR Ki, nM (SEM, n)
T2 construct: expressed in transfected cells; crude membranes
T2 sequence (P48546 22-466): T1 sequence (P48546 22-466)

[3] = target: human GLP-1R (Homo sapiens, UniProt P43220); test: [125I]-GLP-1 binding (SPA), human GLP-1 receptor; parameters: expressed in transfected cells; crude membranes; conditions: read-out: hGLP1R Ki, (nM) (SEM, n)
How it was run: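 Membranes: hypotonic lysis (50 mM Tris HCl, pH 7.5, protease inhibitors), Potter-Elvehjem homogenization, high-speed pellet (35000×g 1 h or 25000×g 30 min, 4° C.). Buffer: 25 mM HEPES pH 7.4, 2.5 mM CaCl2, 1 mM MgCl2. Four-parameter IC50 fit; Ki as geometric mean ± SEM.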

[4] = target: human GLP-1 receptor (GLP-1R) (Homo sapiens, UniProt P43220); test: cAMP pharmacological functional assay in presence of casein, hGLP-1R; type: cell-based; conditions: HEK293 cells expressing hGLP-1R, 0.1% Casein, geometric mean; read-out: hGLP1R cAMP Rel EC50 nM (SEM, n)
[5] = target: T3, human Gcg receptor (Homo sapiens, UniProt P47871); test: [125I]-Glucagon binding (SPA), human Gcg receptor; conditions: read-out: hGLcgR Ki, nM (SEM, n)
T3 construct: expressed in transfected cells; crude membranes
How it was run: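 Crude membranes from cells expressing the receptor, prepared by hypotonic lysis in 50 mM Tris HCl pH 7.5 with protease inhibitors, homogenization and differential centrifugation, were used in a WGA-bead SPA. Binding buffer: 25 mM HEPES pH 7.4, 2.5 mM CaCl2, 1 mM MgCl2, bacitracin, Tween-20.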

T3 sequence (P47871 26-477): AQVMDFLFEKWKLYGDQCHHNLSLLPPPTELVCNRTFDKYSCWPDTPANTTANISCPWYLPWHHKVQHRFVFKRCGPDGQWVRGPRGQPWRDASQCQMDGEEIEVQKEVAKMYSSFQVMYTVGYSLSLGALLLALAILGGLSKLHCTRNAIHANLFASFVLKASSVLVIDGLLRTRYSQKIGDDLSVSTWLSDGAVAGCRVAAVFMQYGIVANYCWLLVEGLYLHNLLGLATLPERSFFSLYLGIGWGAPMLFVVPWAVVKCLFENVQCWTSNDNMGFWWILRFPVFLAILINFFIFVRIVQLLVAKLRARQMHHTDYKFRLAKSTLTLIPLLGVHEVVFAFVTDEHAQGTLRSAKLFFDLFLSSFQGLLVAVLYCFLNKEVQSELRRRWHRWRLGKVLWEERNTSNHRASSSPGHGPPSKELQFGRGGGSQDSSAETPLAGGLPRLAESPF
human GLP-1 receptor (GLP-1R), sequence (P43220 24-463): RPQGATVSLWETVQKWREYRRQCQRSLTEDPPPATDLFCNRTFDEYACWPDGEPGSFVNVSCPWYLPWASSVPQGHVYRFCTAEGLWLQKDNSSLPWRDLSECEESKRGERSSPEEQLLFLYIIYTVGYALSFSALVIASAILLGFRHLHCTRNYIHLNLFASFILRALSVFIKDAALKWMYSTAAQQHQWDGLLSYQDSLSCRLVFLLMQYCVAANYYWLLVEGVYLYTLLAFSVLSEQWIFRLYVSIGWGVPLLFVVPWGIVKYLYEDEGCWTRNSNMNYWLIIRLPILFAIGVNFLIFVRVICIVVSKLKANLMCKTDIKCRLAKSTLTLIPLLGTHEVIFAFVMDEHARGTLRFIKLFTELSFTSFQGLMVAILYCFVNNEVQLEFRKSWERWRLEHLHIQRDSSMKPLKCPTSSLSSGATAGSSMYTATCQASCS
human GLP-1R, sequence (P43220 24-463): as above

| Structure (SMILES) | EC50 [1] [nM] | Ki [2] [nM] | Ki [3] [nM] | EC50 [4] [nM] | Ki [5] [nM] |
| --- | --- | --- | --- | --- | --- |
| CC[C@H](C)[C@H](NC(=O)[C@H](CC(C)C)NC(=O)[C@H](Cc1ccc(O)cc1)NC(=O)[C@@H](CCC(=O)O)NC(=O)[C@@H](NC(=O)[C@H](Cc1ccccc1)NC(=O)[C@H](CCC(=O)O)NC(=O)C(C)(C)NC(=O)[C@H](CCC(N)=O)NC(=O)[C@H](C)NC(=O)[C@H](CCCCNC(=O)COCCOCCNC(=O)COCCOCCNC(=O)CC[C@H](NC(=O)CCCCCCCCCCCCCCCCCCC(=O)O)C(=O)O)NC(=O)[C@H](CCC(=O)O)NC(=O)[C@H](CC(=O)O)NC(=O)[C@H](CC(C)C)NC(=O)[C@](C)(CC(C)C)NC(=O)[C@@H](NC(=O)[C@H](CO)NC(=O)[C@H](Cc1ccc(O)cc1)NC(=O)[C@H](CC(=O)O)NC(=O)[C@H](CO)NC(=O)[C@@H](NC(=O)[C@](C)(Cc1ccccc1)NC(=O)[C@@H](NC(=O)CNC(=O)[C@H](CCC(=O)O)NC(=O)C(C)(C)NC(=O)[C@@H](N)Cc1ccc(O)cc1)[C@@H](C)O)[C@@H](C)O)[C@@H](C)CC)[C@@H](C)CC)C(=O)N[C@@H](CCC(=O)O)C(=O)NCC(=O)NCC(=O)N1CCC[C@H]1C(=O)N[C@@H](CO)C(=O)N[C@@H](CO)C(=O)NCC(=O)N[C@@H](C)C(=O)N1CCC[C@H]1C(=O)N1CCC[C@H]1C(=O)N1CCC[C@H]1C(=O)N[C@@H](CO)C(N)=O [Example 227] (H-Y[Aib]EGT[αMeF]TSDYSI[αMeL]LDEK([AEEA-AEEA-γGlu-C20 diacid])AQ[Aib]EFI[dE]YLIEGGPSSGAPPPS-NH2) | 0.0414 | 0.0146 | 2.01 | 0.0329 | 113 |
| CC[C@H](C)[C@H](NC(=O)[C@H](CC(C)C)NC(=O)[C@H](Cc1ccc(O)cc1)NC(=O)[C@@H](CCC(=O)O)NC(=O)[C@@H](NC(=O)[C@H](Cc1ccccc1)NC(=O)[C@H](CCC(=O)O)NC(=O)C(C)(C)NC(=O)[C@H](CCC(N)=O)NC(=O)[C@H](C)NC(=O)[C@H](CCCCNC(=O)COCCOCCNC(=O)COCCOCCNC(=O)CC[C@H](NC(=O)CCCCCCCCCCCCCCCCCCC(=O)O)C(=O)O)NC(=O)[C@H](CCCCN)NC(=O)[C@H](CC(=O)O)NC(=O)[C@H](CC(C)C)NC(=O)[C@](C)(CC(C)C)NC(=O)[C@@H](NC(=O)[C@H](CO)NC(=O)[C@H](Cc1ccc(O)cc1)NC(=O)[C@H](CC(=O)O)NC(=O)[C@H](CO)NC(=O)[C@@H](NC(=O)[C@](C)(Cc1ccccc1)NC(=O)[C@@H](NC(=O)CNC(=O)[C@H](CCC(=O)O)NC(=O)C(C)(C)NC(=O)[C@@H](N)Cc1ccc(O)cc1)[C@@H](C)O)[C@@H](C)O)[C@@H](C)CC)[C@@H](C)CC)C(=O)N[C@@H](CCC(=O)O)C(=O)NCC(=O)NCC(=O)N1CCC[C@H]1C(=O)N[C@@H](CO)C(=O)N[C@@H](CO)C(=O)NCC(N)=O [Example 228] (H-Y[Aib]EGT[αMeF]TSDYSI[αMeL]LDKK([AEEA-AEEA-γGlu-C20 diacid])AQ[Aib]EFI[dE]YLIEGGPSSG-NH2) | 0.0503 | 0.028 | 2.43 | 0.0282 | 182 |
| CC[C@H](C)[C@H](NC(=O)[C@H](CC(C)C)NC(=O)[C@H](Cc1ccc(O)cc1)NC(=O)[C@@H](CCC(=O)O)NC(=O)[C@@H](NC(=O)[C@H](Cc1ccccc1)NC(=O)[C@H](CCC(=O)O)NC(=O)C(C)(C)NC(=O)[C@H](CCC(N)=O)NC(=O)[C@H](C)NC(=O)[C@H](CCCCNC(=O)COCCOCCNC(=O)COCCOCCNC(=O)CC[C@H](NC(=O)CCCCCCCCCCCCCCCCCCC(=O)O)C(=O)O)NC(=O)[C@H](CCC(=O)O)NC(=O)[C@H](CC(=O)O)NC(=O)[C@H](CC(C)C)NC(=O)[C@](C)(CC(C)C)NC(=O)[C@H](CO)NC(=O)[C@H](Cc1ccc(O)cc1)NC(=O)[C@H](CC(=O)O)NC(=O)[C@H](CO)NC(=O)[C@@H](NC(=O)[C@](C)(Cc1ccccc1F)NC(=O)[C@@H](NC(=O)CNC(=O)[C@H](CCC(=O)O)NC(=O)C(C)(C)NC(=O)[C@@H](N)Cc1ccc(O)cc1)[C@@H](C)O)[C@@H](C)O)[C@@H](C)CC)C(=O)N[C@@H](CCC(=O)O)C(=O)NCC(=O)NCC(=O)N1CCC[C@H]1C(=O)N[C@@H](CO)C(=O)N[C@@H](CO)C(=O)NCC(=O)N[C@@H](C)C(=O)N1CCC[C@H]1C(=O)N1CCC[C@H]1C(=O)N1CCC[C@H]1C(=O)N[C@@H](CO)C(N)=O [Example 229] (H-Y[Aib]EGT[αMePhe(2-F)]TSDYS[αMeL]LDEK([AEEA-AEEA-γGlu-C20 diacid])AQ[Aib]EFI[dE]YLIEGGPSSGAPPPS-NH2) | 4.79 | 2.47 | 36.2 | 2.11 | > 1100 |
| CC[C@H](C)[C@H](NC(=O)[C@H](CC(C)C)NC(=O)[C@H](Cc1ccc(O)cc1)NC(=O)[C@@H](CCC(=O)O)NC(=O)[C@@H](NC(=O)[C@H](Cc1ccccc1)NC(=O)[C@H](CCC(=O)O)NC(=O)C(C)(C)NC(=O)[C@H](CCC(N)=O)NC(=O)[C@H](C)NC(=O)[C@H](CCCCNC(=O)COCCOCCNC(=O)COCCOCCNC(=O)CC[C@H](NC(=O)CCCCCCCCCCCCCCCCCCC(=O)O)C(=O)O)NC(=O)[C@H](Cc1c[nH]cn1)NC(=O)[C@H](CC(=O)O)NC(=O)[C@H](CC(C)C)NC(=O)[C@](C)(CC(C)C)NC(=O)[C@@H](NC(=O)[C@H](CO)NC(=O)[C@H](Cc1ccc(O)cc1)NC(=O)[C@H](CC(=O)O)NC(=O)[C@H](CO)NC(=O)[C@@H](NC(=O)[C@](C)(Cc1ccccc1F)NC(=O)[C@@H](NC(=O)CNC(=O)[C@H](CCC(=O)O)NC(=O)C(C)(C)NC(=O)[C@@H](N)Cc1ccc(O)cc1)[C@@H](C)O)[C@@H](C)O)[C@@H](C)CC)[C@@H](C)CC)C(=O)N[C@@H](CCC(=O)O)C(=O)NCC(=O)NCC(=O)N1CCC[C@H]1C(=O)N[C@@H](CO)C(=O)N[C@@H](CO)C(=O)NCC(=O)N[C@@H](C)C(=O)N1CCC[C@H]1C(=O)N1CCC[C@H]1C(=O)N1CCC[C@H]1C(=O)N[C@@H](CO)C(N)=O [Example 230] (H-Y[Aib]EGT[αMePhe(2-F)]TSDYSI[αMeL]LDHK([AEEA-AEEA-γGlu-C20 diacid])AQ[Aib]EFI[dE]YLIEGGPSSGAPPPS-NH2) | 0.0431 | 0.042 | 4.68 | 0.0491 | 494 |
| CC[C@H](C)[C@H](NC(=O)[C@H](CC(C)C)NC(=O)[C@H](Cc1ccc(O)cc1)NC(=O)[C@@H](CCC(=O)O)NC(=O)[C@@H](NC(=O)[C@H](Cc1ccccc1)NC(=O)[C@H](CCC(=O)O)NC(=O)C(C)(C)NC(=O)[C@H](CCC(N)=O)NC(=O)[C@H](C)NC(=O)[C@H](CCCCNC(=O)COCCOCCNC(=O)COCCOCCNC(=O)CC[C@H](NC(=O)CCCCCCCCCCCCCCCCC(=O)O)C(=O)O)NC(=O)[C@H](CCCCN)NC(=O)[C@H](CC(=O)O)NC(=O)[C@H](CC(C)C)NC(=O)C(C)(CC(C)C)NC(=O)[C@@H](NC(=O)[C@H](CO)NC(=O)[C@H](Cc1ccc(O)cc1)NC(=O)[C@H](CC(=O)O)NC(=O)[C@H](CO)NC(=O)[C@@H](NC(=O)C(C)(Cc1ccccc1F)NC(=O)[C@@H](NC(=O)CNC(=O)[C@H](CCC(=O)O)NC(=O)C(C)(C)NC(=O)[C@@H](N)Cc1ccc(O)cc1)[C@@H](C)O)[C@@H](C)O)[C@@H](C)CC)[C@@H](C)CC)C(=O)N[C@@H](CCC(=O)O)C(=O)NCC(=O)NCC(=O)N1CCC[C@H]1C(=O)N[C@@H](CO)C(=O)N[C@@H](CO)C(=O)NCC(=O)N[C@@H](C)C(=O)N1CCC[C@H]1C(=O)N1CCC[C@H]1C(=O)N1CCC[C@H]1C(=O)N[C@@H](CO)C(N)=O (stereo partly shown) [Example 231] | 0.0253 | 0.0394 | 3.03 | 0.0611 | 440 |
